Reference: patent publication US20230183237A1, “COMPETITIVE AND NONCOMPETITIVE INHIBITORS OF THE MUSCARINIC ACETYLCHOLINE RECEPTOR M5” (Vanderbilt University, priority 2020, published 2023)

Target: T1, hM5 (Homo sapiens, UniProt P08912)
T1 construct: expressed in transfected cells
T1 sequence (P08912 1-532): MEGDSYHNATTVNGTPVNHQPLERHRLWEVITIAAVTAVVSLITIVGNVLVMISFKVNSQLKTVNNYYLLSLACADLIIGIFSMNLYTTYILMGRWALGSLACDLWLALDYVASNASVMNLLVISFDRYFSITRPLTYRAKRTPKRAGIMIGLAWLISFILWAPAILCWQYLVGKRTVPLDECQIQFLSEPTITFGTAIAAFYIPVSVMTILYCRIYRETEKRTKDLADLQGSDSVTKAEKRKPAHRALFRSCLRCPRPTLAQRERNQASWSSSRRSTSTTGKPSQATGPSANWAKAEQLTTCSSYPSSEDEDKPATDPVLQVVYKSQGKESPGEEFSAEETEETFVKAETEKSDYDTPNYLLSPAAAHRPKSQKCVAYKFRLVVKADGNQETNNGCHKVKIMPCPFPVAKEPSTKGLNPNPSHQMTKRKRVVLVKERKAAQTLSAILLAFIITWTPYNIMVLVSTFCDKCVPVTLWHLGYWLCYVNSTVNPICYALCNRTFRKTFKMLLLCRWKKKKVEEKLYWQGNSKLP
Assay: Calcium mobilization concentration-response (IC50 vs EC80 acetylcholine), CHO hM5
Format: cell-based
Details: CELL LINE hM5; calcium mobilization, EC80 acetylcholine addition; read-out: IC50
Method in brief: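 IC50 values derive from percent maximal acetylcholine response after an EC80 ACh addition, measured as kinetic calcium fluorescence (static ratio, max−min). Test compounds were added 140 s before agonist. Cells: stable hM5-CHO in HEPES-buffered HBSS with 2.5 mM probenecid, pH 7.4; ≥3 independent triplicate determinations.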

**Q.** `Cc1cc2ncnn2nc1C1CCN(S(=O)(=O)c2cnc(C)n2C)CC1` [Compound 216, 6-(1-((1,2-dimethyl-1H-imidazol-5-yl)sulfonyl)piperidin-4-yl)-7-methyl-[1,2,4]triazolo[1,5-b]pyridazine] was tested. Which IC50 did it give?
**A.** 689 nM

**Q.** How did the IC50 turn out when `O=S(=O)(c1ccc2c(c1)CCO2)N1CCC(c2nc3ccccc3[nH]2)CC1` [Compound 3, 2-(1-((2,3-dihydrobenzofuran-5-yl)sulfonyl)piperidin-4-yl)-1H-benzo[d]imidazole] was run?
**A.** > 10000 nM

**Q.** How did the IC50 turn out when `Cc1nn(C)c(C(F)(F)F)c1S(=O)(=O)N1CCC(c2cn3ncnc3cc2F)CC1` [Compound 227, 6-(1-((1,3-dimethyl-5-(trifluoromethyl)-1H-pyrazol-4-yl)sulfonyl)piperidin-4-yl)-7-fluoro-[1,2,4]triazolo[1,5-a]pyridine] was run?
**A.** 2100 nM

**Q.** `Cc1cc2c(cc1C1CCN(S(=O)(=O)c3cnc(C)n3C)CC1)OCO2` [Compound 373, 1-((1,2-dimethyl-1H-imidazol-5-yl)sulfonyl)-4-(6-methylbenzo[d][1,3]dioxol-5-yl)piperidine] was tested. Which IC50 did it give?
**A.** 13 nM

**Q.** How did the IC50 turn out when `Cc1cc2nc(C(F)F)nn2cc1C1=CCN(S(=O)(=O)c2cnn3c2CCCC3)CC1` [Compound 316, 2-(difluoromethyl)-7-methyl-6-(1-((4,5,6,7-tetrahydropyrazolo[1,5-a]pyridin-3-yl)sulfonyl)-1,2,3,6-tetrahydropyridin-4-yl)-[1,2,4]triazolo[1,5-a]pyridine] was run?
**A.** 1200 nM

**Q.** With `Cn1ncc(S(=O)(=O)N2CCC(c3ccncc3)CC2)c1Cl` [Compound 364, 4-(1-((5-chloro-1-methyl-1H-pyrazol-4-yl)sulfonyl)piperidin-4-yl)pyridine] as the compound, how does the IC50 read?
**A.** > 10000 nM

**Q.** Which IC50 does the source give for `Cc1ncc(S(=O)(=O)N2CCC(c3cn4ncnc4cc3C(F)(F)F)CC2)n1C` [Compound 277, 6-(1-((1,2-dimethyl-1H-imidazol-5-yl)sulfonyl)piperidin-4-yl)-7-(trifluoromethyl)-[1,2,4]triazolo[1,5-a]pyridine] here?
**A.** 234 nM

**Q.** With `Cc1nc2cc(C)c(C3CCN(S(=O)(=O)c4cn(C)nc4C)CC3)cn2n1` [Compound 79, 6-(1-((1,3-dimethyl-1H-pyrazol-4-yl)sulfonyl)piperidin-4-yl)-2,7-dimethyl-[1,2,4]triazolo[1,5-a]pyridine] as the compound, how does the IC50 read?
**A.** > 10000 nM

**Q.** For `O=S(=O)(c1cnc2n1CCCC2)N1CCC(c2cn3ncnc3cc2Cl)CC1` [Compound 343], which IC50 is on record?
**A.** 12 nM

**Q.** With `Cc1cc2ncnn2cc1C1=CCN(S(=O)(=O)c2ccc3c(c2)CC(C)O3)CC1` (stereo not shown) [Compound 49, 7-methyl-6-(1-((2-methyl-2,3-dihydrobenzofuran-5-yl)sulfonyl)-1,2,3,6-tetrahydropyridin-4-yl)-[1,2,4]triazolo[1,5-a]pyridine] as the compound, how does the IC50 read?
**A.** > 10000 nM

**Q.** How did the IC50 turn out when `Cc1cc2ncnn2cc1C1CCN(S(=O)(=O)c2cn(C(F)F)nc2C)CC1` [Compound 144, 6-(1-((1-(difluoromethyl)-3-methyl-1H-pyrazol-4-yl)sulfonyl)piperidin-4-yl)-7-methyl-[1,2,4]triazolo[1,5-a]pyridine] was run?
**A.** 1200 nM

**Q.** Which IC50 does the source give for `Cc1nc2cc(C)c(C3CCN(S(=O)(=O)c4cnn(C)c4C)CC3)cn2n1` [Compound 200, 6-(1-((1,5-dimethyl-1H-pyrazol-4-yl)sulfonyl)piperidin-4-yl)-2,7-dimethyl-[1,2,4]triazolo[1,5-a]pyridine] here?
**A.** 899 nM

**Q.** How did the IC50 turn out when `Cc1cc(C(F)(F)F)ncc1C1CCN(S(=O)(=O)c2cnn(C)c2C)CC1` [Compound 394, 5-(1-((1,5-dimethyl-1H-pyrazol-4-yl)sulfonyl)piperidin-4-yl)-4-methyl-2-(trifluoromethyl)pyridine] was run?
**A.** 2510 nM

**Q.** For `Cc1cc2c(cc1S(=O)(=O)N1CCC(c3nn4ncnc4cc3C)CC1)OCO2` [Compound 183, 7-methyl-6-(1-((6-methylbenzo[d][1,3]dioxol-5-yl)sulfonyl)piperidin-4-yl)-[1,2,4]triazolo[1,5-b]pyridazine], which IC50 is on record?
**A.** > 10000 nM

**Q.** For `O=S(=O)(c1cnn2c1CCC2)N1CCC(c2cn3ncnc3cc2C(F)(F)F)CC1` [Compound 272, 6-(1-((5,6-dihydro-4H-pyrrolo[1,2-b]pyrazol-3-yl)sulfonyl)piperidin-4-yl)-7-(trifluoromethyl)-[1,2,4]triazolo[1,5-a]pyridine], which IC50 is on record?
**A.** 74 nM

**Q.** For `Cc1cc2ncnn2cc1C1CCN(S(=O)(=O)c2cc3c(cc2C)OCC3C)CC1` (stereo not shown) [Compound 100, 6-(1-((3,6-dimethyl-2,3-dihydrobenzofuran-5-yl)sulfonyl)piperidin-4-yl)-7-methyl-[1,2,4]triazolo[1,5-a]pyridine], which IC50 is on record?
**A.** 39 nM

**Q.** For `Cc1nn(C)c(C(F)(F)F)c1S(=O)(=O)N1CCC(c2cn3ncnc3cc2C(F)(F)F)CC1` [Compound 281, 6-(1-((1,3-dimethyl-5-(trifluoromethyl)-1H-pyrazol-4-yl)sulfonyl)piperidin-4-yl)-7-(trifluoromethyl)-[1,2,4]triazolo[1,5-a]pyridine], which IC50 is on record?
**A.** 1400 nM

**Q.** With `Cc1cc(C#N)cnc1C1=CCN(S(=O)(=O)c2cnn(C)c2C)CC1` [Compound 209, 1′-((1,5-dimethyl-1H-pyrazol-4-yl)sulfonyl)-3-methyl-1′,2′,3′,6′-tetrahydro-[2,4′-bipyridine]-5-carbonitrile] as the compound, how does the IC50 read?
**A.** > 10000 nM

**Q.** With `Cc1ncc(S(=O)(=O)N2CCC(c3cn4ncnc4cc3Cl)CC2)n1C` [Compound 294, 7-chloro-6-(1-((1,2-dimethyl-1H-imidazol-5-yl)sulfonyl)piperidin-4-yl)-[1,2,4]triazolo[1,5-a]pyridine] as the compound, how does the IC50 read?
**A.** 22 nM

Same assay, conditions: CELL LINE hM5; vs EC80 acetylcholine; read-out: IC50

**Q.** For `Cc1cc2ncnn2cc1C1CCN(S(=O)(=O)c2scnc2C)CC1` [Compound 601, 4-methyl-5-((4-(7-methyl-[1,2,4]triazolo[1,5-a]pyridin-6-yl)piperidin-1-yl)sulfonyl)thiazole], which IC50 is on record?
**A.** 5240 nM

**Q.** `O=S(=O)(c1cnc2sccn12)N1CCC(c2cn3ncnc3cc2Cl)CC1` [Compound 531, 5-((4-(7-chloro-[1,2,4]triazolo[1,5-a]pyridin-6-yl)piperidin-1-yl)sulfonyl)imidazo[2,1-b]thiazole] was tested. Which IC50 did it give?
**A.** 6 nM

**Q.** With `CO[C@H]1CN(S(=O)(=O)c2cnn(C)c2Cl)CC[C@@H]1c1cn2ncnc2cc1C` (single isomer, unassigned) [Compound 460] as the compound, how does the IC50 read?
**A.** > 10000 nM

**Q.** With `Cc1cc2ncccc2cc1C1CCN(S(=O)(=O)c2c(Cl)nn3ccccc23)CC1` [Compound 447, 6-(1-((2-chloropyrazolo[1,5-a]pyridin-3-yl)sulfonyl)piperidin-4-yl)-7-methylquinoline] as the compound, how does the IC50 read?
**A.** 1360 nM

**Q.** Which IC50 does the source give for `Cc1cc2ncccc2cc1C1CCN(S(=O)(=O)c2c(Cl)nc3sccn23)CC1` [Compound 451, 6-chloro-5-((4-(7-methylquinolin-6-yl)piperidin-1-yl)sulfonyl)imidazo[2,1-b]thiazole] here?
**A.** 619 nM

**Q.** How did the IC50 turn out when `[2H]C1([2H])CC(c2cn3ncnc3c(F)c2C)CC([2H])([2H])N1S(=O)(=O)c1cnn(C)c1C(F)F` [Compound 474, 6-(1-((5-(Difluoromethyl)-1-methyl-1H-pyrazol-4-yl)sulfonyl)piperidin-4-yl-2,2,6,6-d4)-8-fluoro-7-methyl-[1,2,4]triazolo[1,5-a]pyridine] was run?
**A.** 11 nM

**Q.** For `Cc1cnccc1C1CCN(S(=O)(=O)c2cnn(C)c2Cl)CC1` [Compound 429, 4-(1-((5-chloro-1-methyl-1H-pyrazol-4-yl)sulfonyl)piperidin-4-yl)-3-methylpyridine], which IC50 is on record?
**A.** 398 nM

**Q.** For `Cc1cc2ncccc2cc1C1CCN(S(=O)(=O)c2cnn3c2CCC3)CC1` [Compound 444, 6-(1-((5,6-dihydro-pyrrolo[1,2-b]pyrazol-3-yl)sulfonyl)piperidin-4-yl)-7-methylquinoline], which IC50 is on record?
**A.** 15 nM

**Q.** For `Cc1nnc(S(=O)(=O)N2CCC(c3cn4ncnc4cc3Cl)CC2)o1` [Compound 607], which IC50 is on record?
**A.** 151 nM

**Q.** Which IC50 does the source give for `Cc1cc(N(C)C)ncc1C1CCN(S(=O)(=O)c2cnc3sccn23)CC1` [Compound 566, 5-(1-(imidazo[2,1-b]thiazol-5-ylsulfonyl)piperidin-4-yl)-N,N,4-trimethylpyridin-2-amine] here?
**A.** 16 nM

**Q.** `Cc1cc2ncccc2cc1C1CCN(S(=O)(=O)c2cnn(C)c2Cl)CC1` [Compound 417, 6-(1-((5-chloro-1-methyl-1H-pyrazol-4-yl)sulfonyl)piperidin-4-yl)-7-methylquinoline] was tested. Which IC50 did it give?
**A.** 34 nM

**Q.** For `CCc1cc2ncnn2cc1C1CCN(S(=O)(=O)c2cnc(Cl)s2)CC1` [Compound 513, 2-chloro-5-((4-(7-ethyl-[1,2,4]triazolo[1,5-a]pyridin-6-yl)piperidin-1-yl)sulfonyl)thiazole], which IC50 is on record?
**A.** 4770 nM

**Q.** Which IC50 does the source give for `Cc1cc2ncnn2cc1C1(F)CCN(S(=O)(=O)c2cnn(C)c2C#N)CC1` [Compound 462, 4-((4-fluoro-4-(7-methyl-[1,2,4]triazolo[1,5-a]pyridin-6-yl)piperidin-1-yl)sulfonyl)-1-methyl-1H-pyrazole-5-carbonitrile] here?
**A.** 86 nM

**Q.** `Cc1nc2n(c1C1CCN(S(=O)(=O)c3cnn(C)c3C)CC1)CCCC2` [Compound 464, 3-(1-((1,5-dimethyl-1H-pyrazol-4-yl)sulfonyl)piperidin-4-yl)-2-methyl-5,6,7,8-tetrahydroimidazo[1,2-a]pyridine] was tested. Which IC50 did it give?
**A.** 275 nM

**Q.** For `Cc1ncc(S(=O)(=O)N2CCC(c3cn4ncnc4cc3C(F)F)CC2)o1` [Compound 497, 5-((4-(7-(difluoromethyl)-[1,2,4]triazolo[1,5-a]pyridin-6-yl)piperidin-1-yl)sulfonyl)-2-methyloxazole], which IC50 is on record?
**A.** 141 nM
